Tests used:
[1] = tested on: interferon (α); test: Cytokine Induction in Human Cells: interferon (α) by ELISA; format: cell-based; design: key to Lowest Effective Concentration (μM) Interferon: *: no induction was seen at any of the tested concentrations; generally the highest concentration tested was 10 or 30 μM; details: human PBMC, 18 to 24 hours incubation, lowest concentration found to induce interferon
Source text: (§1) An in vitro human blood cell system is used to assess cytokine induction. Activity is based on the measurement of interferon and tumor necrosis factor (α) (IFN and TNF, respectively) secreted into culture media as described by Testerman et. al. In “Cytokine Induction by the Immunomodulators Imiquimod and S-27609”, Journal of Leukocyte Biology, 58, 365-372 (September, 1995).
(§2) Whole blood from healthy human donors is collected by venipuncture into EDTA vacutainer tubes. Peripheral blood mononuclear cells (PBMC) are separated from whole blood by density gradient centrifugation using Histopaque®-1077. Blood is diluted 1:1 with Dulbecco's Phosphate Buffered Saline (DPBS) or Hank's Balanced Salts Solution (HBSS). The PBMC layer is collected and washed twice with DPBS or HBSS and resuspended at 4×10^6 cells/mL in RPMI complete. The PBMC suspension is added to 48 well flat bottom sterile tissue culture plates (Costar, Cambridge, Mass. or Becton Dickinson Labware, Lincoln Park, N.J.) containing an equal volume of RPMI complete media containing test compound.
(§3) The compounds are solubilized in dimethyl sulfoxide (DMSO). The DMSO concentration should not exceed a final concentration of 1% for addition to the culture wells. The compounds are generally tested at concentrations ranging from 30-0.014 μM.
(§4) The solution of test compound is added at 60 μM to the first well containing RPMI complete and serial 3 fold dilutions are made in the wells. The PBMC suspension is then added to the wells in an equal volume, bringing the test compound concentrations to the desired range (30-0.014 μM). The final concentration of PBMC suspension is 2×10^6 cells/mL. The plates are covered with sterile plastic lids, mixed gently and then incubated for 18 to 24 hours at 37° C. in a 5% carbon dioxide atmosphere.
(§5) Following incubation the plates are centrifuged for 10 minutes at 1000 rpm (˜200×g) at 4° C. The cell-free culture supernatant is removed with a sterile polypropylene pipet and transferred to sterile polypropylene tubes. Samples are maintained at −30 to −70° C. until analysis. The samples are analyzed for interferon (α) by ELISA and for tumor necrosis factor (α) by ELISA or IGEN Assay
Interferon (α) concentration is determined by ELISA using a Human Multi-Species kit from PBL Biomedical Laboratories, New Brunswick, N.J. Results are expressed in pg/mL.
(§6) The table below lists the lowest concentration found to induce interferon and the lowest concentration found to induce tumor necrosis factor for each compound.

[2] = tested on: tumor necrosis factor (α); test: Cytokine Induction in Human Cells: tumor necrosis factor (α) by ELISA or IGEN assay; format: cell-based; design: key to Lowest Effective Concentration (μM) Tumor Necrosis Factor: *: no induction was seen at any of the tested concentrations; generally the highest concentration tested was 10 or 30 μM; details: human PBMC, 18 to 24 hours incubation, lowest concentration found to induce tumor necrosis factor
Source text: as §1, §2, §3, §4, §5
Tumor necrosis factor (α) (TNF) concentration is determined using ELISA kits available from Biosource International, Camarillo, Calif. Alternately, the TNF concentration can be determined by Origen® M-Series Immunoassay and read on an IGEN M-8 analyzer from IGEN International, Gaithersburg, Md. The immunoassay uses a human TNF capture and detection antibody pair from Biosource International, Camarillo, Calif. Results are expressed in pg/mL.
as §6

SMILES	minimal effective concentration [1] [µM]	minimal effective concentration [2] [µM]	Lowest Effective Concentration (μM) Interferon [1]	Lowest Effective Concentration (μM) Tumor Necrosis Factor [2]
CCCCc1nc2c(N)nc3ccccc3c2n1CCOCCNS(=O)(=O)CC [Example 6]	0.001	1	–	–
CCCCc1nc2c(N)nc3ccccc3c2n1CCOCCNS(=O)(=O)c1cccc2ccccc12 [Example 18]	–	10	*	–
CCCCc1nc2c(N)nc3ccccc3c2n1CCOCCNS(=O)(=O)c1ccc(C#N)cc1 [Example 14]	1	10	–	–
CCC(COCCC1CCN(S(=O)(=O)c2ccc(OC(F)(F)F)cc2)CC1)n1cnc2c(N)nc3ccccc3c21 (centres unmarked) [Example 38]	–	–	*	*
CCC(COCCC1CCN(S(=O)(=O)c2ccc(F)cc2F)CC1)n1cnc2c(N)nc3ccccc3c21 (centres unmarked) [Example 35]	1	1	–	–
CCC(COCCC1CCN(S(=O)(=O)c2ccc(/N=N/c3ccc(N(C)C)cc3)cc2)CC1)n1cnc2c(N)nc3ccccc3c21 (centres unmarked) [Example 39]	1	–	–	*
Nc1nc2ccccc2c2c1ncn2CCOCCNS(=O)(=O)c1ccc(-c2ccccc2)cc1 [Example 47]	–	–	*	*
CCC(COCCC1CCN(S(=O)(=O)c2ccc(OC)cc2)CC1)n1cnc2c(N)nc3ccccc3c21 (centres unmarked) [Example 34]	1	1	–	–
CCCCc1nc2c(N)nc3ccccc3c2n1CCOCCNS(=O)(=O)CCCC [Example 9]	0.1	1	–	–
CCCCc1nc2c(N)nc3ccccc3c2n1CCOCCNS(=O)(=O)c1ccc2ccccc2c1 [Example 19]	–	10	*	–
Nc1nc2ccccc2c2c1ncn2CCOCCNS(=O)(=O)c1ccc(F)cc1F [Example 44]	1	10	–	–
Nc1nc2ccccc2c2c1ncn2CCOCCNS(=O)(=O)c1ccc2ccccc2c1 [Example 45]	–	–	*	*
CS(=O)(=O)c1ccc(S(=O)(=O)NCCOCCn2cnc3c(N)nc4ccccc4c32)cc1 [Example 48]	–	10	*	–
CCCCS(=O)(=O)N1CCC(CCOCC(CC)n2cnc3c(N)nc4ccccc4c32)CC1 (centres unmarked) [Example 29]	1	10	–	–
CCC(COCCC1CCN(S(=O)(=O)N(C)C)CC1)n1cnc2c(N)nc3ccccc3c21 (centres unmarked) [Example 28]	0.1	1	–	–
CCCCc1nc2c(N)nc3ccccc3c2n1CCOCCNS(=O)(=O)c1cccc2cccnc12 [Example 20]	1	10	–	–
CCCCc1nc2c(N)nc3ccccc3c2n1CCOCCNS(=O)(=O)c1ccc(F)cc1F [Example 17]	1	10	–	–
CCCCc1nc2c(N)nc3ccccc3c2n1CCOCCNS(=O)(=O)Cc1ccccc1 [Example 12]	0.1	10	–	–
CCCCc1nc2c(N)nc3ccccc3c2n1CCOCCNS(=O)(=O)c1ccc(S(C)(=O)=O)cc1 [Example 23]	0.0001	10	–	–
CCCCc1nc2c(N)nc3ccccc3c2n1CCOCCNS(=O)(=O)c1ccccc1 [Example 10]	1	10	–	–
CCCCc1nc2c(N)nc3ccccc3c2n1CCOCCNS(=O)(=O)c1cccc(F)c1 [Example 13]	1	10	–	–
CCCCc1nc2c(N)nc3ccccc3c2n1CCOCCNS(=O)(=O)c1ccc(-c2ccccc2)cc1 [Example 22]	0.0001	10	–	–

SMILES	minimal effective concentration [1] [µM]	minimal effective concentration [2] [µM]	Lowest Effective Concentration (μM) Interferon [1]	Lowest Effective Concentration (μM) Tumor Necrosis Factor [2]
COc1ccc(S(=O)(=O)NCCOCCn2cnc3c(N)nc4ccccc4c32)cc1 [Example 43]	10	10	–	–
CCC(COCCC1CCN(S(=O)(=O)c2cccs2)CC1)n1cnc2c(N)nc3ccccc3c21 (centres unmarked) [Example 31]	1	10	–	–
CCCCc1nc2c(N)nc3ccccc3c2n1CCOCCNS(=O)(=O)c1ccc(/N=N/c2ccc(N(C)C)cc2)cc1 [Example 25]	0.0001	–	–	*
CCC(COCCC1CCN(S(=O)(=O)c2ccc(S(C)(=O)=O)cc2)CC1)n1cnc2c(N)nc3ccccc3c21 (centres unmarked) [Example 37]	0.1	1	–	–
Nc1nc2ccccc2c2c1ncn2CCOCCNS(=O)(=O)c1ccccc1 [Example 41]	10	1	–	–
Nc1nc2ccccc2c2c1ncn2CCOCCNS(=O)(=O)c1ccc(OC(F)(F)F)cc1 [Example 49]	–	10	*	–
CCCCc1nc2c(N)nc3ccccc3c2n1CCOCCNS(=O)(=O)c1cccs1 [Example 11]	1	10	–	–
CCCCc1nc2c(N)nc3ccccc3c2n1CCOCCNS(=O)(=O)c1ccc(OC)cc1 [Example 16]	1	10	–	–
CCC(COCCC1CCN(S(=O)(=O)c2cccc3cccnc23)CC1)n1cnc2c(N)nc3ccccc3c21 (centres unmarked) [Example 36]	1	10	–	–
CCC(COCCC1CCN(S(=O)(=O)c2ccccc2)CC1)n1cnc2c(N)nc3ccccc3c21 (centres unmarked) [Example 30]	1	10	–	–
CCC(COCCC1CCN(S(=O)(=O)C(C)C)CC1)n1cnc2c(N)nc3ccccc3c21 (centres unmarked) [Example 27]	0.1	1	–	–
CCCCc1nc2c(N)nc3ccccc3c2n1CCOCCNS(=O)(=O)N(C)C [Example 8]	0.01	1	–	–
CCCCc1nc2c(N)nc3ccccc3c2n1CCOCCNS(=O)(=O)c1ccc(OC(F)(F)F)cc1 [Example 24]	0.0001	10	–	–
CCCCc1nc2c(N)nc3ccccc3c2n1CCOCCNS(=O)(=O)c1ccc(C(F)(F)F)cc1 [Example 21]	10	10	–	–
CCCCc1nc2c(N)nc3ccccc3c2n1CCOCCNS(=O)(=O)C[C@@]12CC[C@@H](CC1=O)C2(C)C [Example 26]	0.01	10	–	–
CCC(COCCC1CCN(S(=O)(=O)c2cccc(C#N)c2)CC1)n1cnc2c(N)nc3ccccc3c21 (centres unmarked) [Example 33]	1	1	–	–
CCCCc1nc2c(N)nc3ccccc3c2n1CCOCCNS(=O)(=O)c1cccc(C#N)c1 [Example 15]	10	10	–	–
Nc1nc2ccccc2c2c1ncn2CCOCCNS(=O)(=O)c1cccc(F)c1 [Example 42]	10	1	–	–
CCCCc1nc2c(N)nc3ccccc3c2n1CCOCCNS(=O)(=O)C(C)C [Example 7]	0.01	1	–	–
Cc1nc2c(N)nc3ccccc3c2n1CCCOCCOCCCNS(=O)(=O)c1cccc2c(N(C)C)cccc12 [Example 50, N-[10-(4-amino-2-methyl-1H-imidazo[4,5-c]quinolin-1-yl)-4,7-dioxadecyl]-5-dimethylaminonaphthalene-1-sulfonamide]	1.11	–	–	*
Nc1nc2ccccc2c2c1ncn2CCOCCNS(=O)(=O)c1ccc(C(F)(F)F)cc1 [Example 46]	–	–	*	*

— patent US6677347B2, “Sulfonamido ether substituted imidazoquinolines” (3M Innovative Properties Company, priority 2000, dated 2004)
